What was measured:
[1] = test system: hypertensive patients with coronary artery disease; experiment: Blood pressure response to atenolol and number of antihypertensive drugs needed to reach BP control by ADRB1/ADRB2 genotype
[2] = test system: hypertensive patients with coronary artery disease; experiment: Nested case-control study within INVEST-GENES: primary outcome, logistic regression; details: for SNP effect in arm (OR, 95% CI), Death / SNP effect in arm (OR, 95% CI), MI / SNP effect in arm (OR, 95% CI), Stroke: within treatment arm; for Total Number of Events: primary outcome; for OR, effect of CACNB2 rs2357928 genotype on the primary outcome, by treatment: within CCB-treated or β-blocker-treated patients; for OR, ALOX5 promoter polymorphism variant carriers, adverse cardiovascular outcomes, By Drug Therapy: within patients on the named drug
Text: The model contained the following baseline covariates used for primary INVEST analyses: age, sex, race/ethnicity, body mass index, smoking, INVEST treatment strategy, previous myocardial infarction, previous stroke, heart failure, diabetes, renal insufficiency, baseline systolic blood pressure, diuretic use, and ACE inhibitor use, plus codon 65 and 110 genotype, and the interaction term between genotype and strategy assignment.
Relationships between single nucleotide polymorphisms (SNP) and haplotypes of arachidonate 5-lipoxygenase pathway genes and cardiovascular events were tested. […] A haplotype of ALOX5AP and SNPs was genotyped in both LTC4S and LTA4H, encoding 5-lipoxygenase activating protein, leukotriene C4 synthase and leukotriene A4 hydrolase respectively. The effects of these variants on the primary outcome using the X^2 test and logistic regression was analyzed.
Pharmacogenetic relationships were tested between a polymorphism of the LTA4H gene which encodes leukotriene A4 hydrolase and cardiovascular events based on drug-treatment. […] The LTA4H SNP rs2660845 were genotyped and analyzed the effect and interaction of this variant with antihypertensive drug treatment on the primary outcome with the X^2 test and logistic regression.
There was minimal linkage disequilibrium in CACNA1C and CACNB2. 8 SNPs in CACNA1C were examined in the case-control group.

[3] = test system: hypertensive patients with coronary artery disease; experiment: INVEST-GENES cohort: primary and secondary cardiovascular outcomes (death, nonfatal MI, nonfatal stroke), Cox regression; details: for Incidence, Nonfatal MI / Incidence, Nonfatal Stroke / Incidence, Primary Outcome / Incidence, All-cause Mortality: crude incidence; for HR (95% CI) Atenolol vs. Verapamil, Nonfatal MI / HR (95% CI) Atenolol vs. Verapamil, Nonfatal Stroke / HR (95% CI) Atenolol vs. Verapamil, Primary Outcome: reduced model; for HR, KCNMB1 codon 110 (Leu110) variant allele on primary outcome, separately by treatment strategy: within patients randomized to the named drug
[4] = test system: hypertensive subjects; details: Nguyen et al. 2000; cited from earlier work
[5] = Patients on Atenolol (N = 2,830)
[6] = Patients on Atenolol, number of patients
[7] = LTA4H rs2660845 G-carriers (n = 466)
[8] = primary outcome, 0 GGC (ADRB2 46G-79G-523C) copies

Compound: CC(C)NCC(O)COc1ccc(CC(N)=O)cc1 (stereo not drawn) [atenolol]
- covariate-adjusted systolic blood pressure reduction ([1]; 1 copy GEC, 6 weeks): −7.9 mmHg
- covariate-adjusted systolic blood pressure reduction ([1]; 2 copies GEC, 6 weeks): −6.7 mmHg
- patients who achieved sustained blood pressure control ([1]; 619 blood pressure response study patients): 79.8%
- mean systolic blood pressure after 6 weeks of treatment ([1]; 619 patients whose BP change could be attributed to atenolol, mean±SD): 139.7±18.3 mmHg
- mean reduction in diastolic blood pressure ([1]; 619 patients, 6 weeks): −6.2±10.3 mmHg
- mean reduction in systolic blood pressure ([1]; 619 patients, 6 weeks): −11.1±19.5 mmHg
- mean diastolic blood pressure after 6 weeks of treatment ([1]; 619 patients, mean±SD): 80.4±9.9 mmHg
- patients who achieved sustained blood pressure control ([1]; 2,772 patients with complete genotype data, <140/90 mmHg): 75.0%
- Covariate-Adjusted Decline in blood pressure, Diastolic ([1]; ADRB2 C523A AA): −7.4 mmHg
- Covariate-Adjusted Decline in blood pressure, Systolic ([1]; ADRB2 C523A AA): −15.2 mmHg
- Covariate-Adjusted Decline in blood pressure, Diastolic ([1]; ADRB2 C523A CA): −4.5 mmHg
- Covariate-Adjusted Decline in blood pressure, Systolic ([1]; ADRB2 C523A CA): −9.9 mmHg
- Covariate-Adjusted Decline in blood pressure, Diastolic ([1]; ADRB2 C523A CC): −5.1 mmHg
- Covariate-Adjusted Decline in blood pressure, Systolic ([1]; ADRB2 C523A CC): −8.2 mmHg
- Covariate-Adjusted Decline in blood pressure, Diastolic ([1]; ADRB2 Gln27Glu GlnGln): −5.9 mmHg
- Covariate-Adjusted Decline in blood pressure, Systolic ([1]; ADRB2 Gln27Glu GlnGln): −11.2 mmHg
- Covariate-Adjusted Decline in blood pressure, Diastolic ([1]; ADRB2 Gln27Glu GlnGlu): −4.8 mmHg
- Covariate-Adjusted Decline in blood pressure, Systolic ([1]; ADRB2 Gln27Glu GlnGlu): −8.8 mmHg
- Covariate-Adjusted Decline in blood pressure, Diastolic ([1]; ADRB2 Gln27Glu GluGlu): −3.4 mmHg
- Covariate-Adjusted Decline in blood pressure, Systolic ([1]; ADRB2 Gln27Glu GluGlu): −6.0 mmHg
- Covariate-Adjusted Decline in blood pressure, Diastolic ([1]; ADRB2 Gly16Arg ArgArg): −4.9 mmHg
- Covariate-Adjusted Decline in blood pressure, Systolic ([1]; ADRB2 Gly16Arg ArgArg): −8.0 mmHg
- Covariate-Adjusted Decline in blood pressure, Diastolic ([1]; ADRB2 Gly16Arg GlyArg): −5.9 mmHg
- Covariate-Adjusted Decline in blood pressure, Systolic ([1]; ADRB2 Gly16Arg GlyArg): −10.9 mmHg
- Covariate-Adjusted Decline in blood pressure, Diastolic ([1]; ADRB2 Gly16Arg GlyGly): −4.2 mmHg
- Covariate-Adjusted Decline in blood pressure, Systolic ([1]; ADRB2 Gly16Arg GlyGly): −9.0 mmHg
- DBP at 12 months, mean (SD) [1, 5]: 78.3 mmHg
- DBP at 24 months, mean (SD) [1, 5]: 77.7 mmHg
- SBP at 12 months, mean (SD) [1, 5]: 134.0 mmHg
- SBP at 24 months, mean (SD) [1, 5]: 132.3 mmHg
- Percent of visits with blood pressure in control, mean (SD) ([1]; Patients on Atenolol (N = 2,830), atenolol-based strategy, SBP < 140 and DBP < 90 mmHg): 59.4
- BP in control at 12 months, No. [1, 6]: 1725
- BP in control at 24 months, No. [1, 6]: 1695
- BP in control at 12 months, (%) ([1]; Patients on Atenolol, percentage of patients at risk at 12 months): (66.0) %
- BP in control at 24 months, (%) ([1]; Patients on Atenolol, percentage of patients at risk at 24 months): (69.5) %
- Association of ADRB1 haplotypes with blood pressure response to atenolol ([1]; p values >0.2): not significantly associated
- RR: BB vs CCB by genotype, Death ([2]; CACNA1C rs1051375): 0.50
- RR: BB vs CCB by genotype, MI ([2]; CACNA1C rs1051375): 0.39
- RR: BB vs CCB by genotype, Stroke ([2]; CACNA1C rs1051375): 0.38
- SNP effect in arm (OR, 95% CI), Death ([2]; CACNA1C rs1051375): 0.64 (0.37-1.12)
- SNP effect in arm (OR, 95% CI), MI ([2]; CACNA1C rs1051375): 0.38 (0.22-0.68)
- SNP effect in arm (OR, 95% CI), Stroke ([2]; CACNA1C rs10848683): 0.706 (0.375, 1.329)
- Total Number of Events ([2]; All subjects (n = 935)): 113
- Total Number of Events ([2]; LTA4H AA (n = 469)): 41
- Total Number of Events [2, 7]: 63
- OR, effect of CACNB2 rs2357928 genotype on the primary outcome, by treatment [2]: 0.50
- OR, ALOX5 promoter polymorphism variant carriers, adverse cardiovascular outcomes, By Drug Therapy [2]: 1.577
- Incidence, Nonfatal MI ([3]; 0 copies ADRB2 46G-79G-523C): 3.5 per 1000 patient-years
- Incidence, Nonfatal Stroke ([3]; 0 copies ADRB2 46G-79G-523C): 4.2 per 1000 patient-years
- Incidence, Primary Outcome ([3]; 0 copies ADRB2 46G-79G-523C): 10.8 per 1000 patient-years
- HR (95% CI) Atenolol vs. Verapamil, Nonfatal MI ([3]; 0 copies ADRB2 46G-79G-523C): 0.60 (0.31-1.16)
- HR (95% CI) Atenolol vs. Verapamil, Nonfatal Stroke ([3]; 0 copies ADRB2 46G-79G-523C): 0.85 (0.44-1.62)
- HR (95% CI) Atenolol vs. Verapamil, Primary Outcome ([3]; 0 copies ADRB2 46G-79G-523C): 0.60 (0.41-0.87)
- Incidence, Nonfatal MI ([3]; 1 copy ADRB2 46G-79G-523C): 5.8 per 1000 patient-years
- Incidence, Nonfatal Stroke ([3]; 1 copy ADRB2 46G-79G-523C): 4.8 per 1000 patient-years
- HR (95% CI) Atenolol vs. Verapamil, Nonfatal MI ([3]; 1 copy ADRB2 46G-79G-523C): 1.94 (0.89-4.20)
- HR (95% CI) Atenolol vs. Verapamil, Nonfatal Stroke ([3]; 1 copy ADRB2 46G-79G-523C): 1.01 (0.50-2.05)
- HR (95% CI) Atenolol vs. Verapamil, Primary Outcome ([3]; 1 copy ADRB2 46G-79G-523C): 1.03 (0.69-1.54)
- Incidence, Nonfatal MI ([3]; 2 copies ADRB2 46G-79G-523C): 9.1 per 1000 patient-years
- Incidence, Nonfatal Stroke ([3]; 2 copies ADRB2 46G-79G-523C): 5.1 per 1000 patient-years
- Incidence, Primary Outcome ([3]; 2 copies ADRB2 46G-79G-523C): 22.3 per 1000 patient-years
- HR (95% CI) Atenolol vs. Verapamil, Nonfatal MI ([3]; 2 copies ADRB2 46G-79G-523C): 1.53 (0.51-4.57)
- HR (95% CI) Atenolol vs. Verapamil, Nonfatal Stroke ([3]; 2 copies ADRB2 46G-79G-523C): 0.79 (0.22-2.81)
- HR (95% CI) Atenolol vs. Verapamil, Primary Outcome ([3]; 2 copies ADRB2 46G-79G-523C): 1.35 (0.68-2.67)
- HR, primary outcome, atenolol vs. verapamil SR ([3]; carriers (1 or 2 copies) of ADRB2 46G-79G-523C haplotype): 1.10
- HR, primary outcome, atenolol vs. verapamil SR ([3]; non-carriers of ADRB2 46G-79G-523C haplotype): 0.59
- Events/1000 Patient-Years [3, 8]: 10.6 Events/1000 Patient-Years
- Events/1000 Patient-Years ([3]; primary outcome, 1 GGC copy): 15.1 Events/1000 Patient-Years
- Events/1000 Patient-Years ([3]; primary outcome, 2 GGC copies): 23.5 Events/1000 Patient-Years
- Events/1000 Patient-Years ([3]; primary outcome, All Patients): 13.6 Events/1000 Patient-Years
- HR, KCNMB1 codon 110 (Leu110) variant allele on primary outcome, separately by treatment strategy [3]: 0.84

Compound: NS(=O)(=O)c1cc2c(cc1Cl)NCNS2(=O)=O [diuretics, hydrochlorothiazide]
- HR, interaction between ADD1 carrier status and diuretics ([3]; adjusted Cox PH model, primary outcome): 1.02
- Time to primary outcome event, users vs non-users of diuretics ([3]; regardless of ADD1 variant carrier status, Kaplan Meier): not different

Compound: COc1ccc(CCN(C)CCCC(C#N)(c2ccc(OC)c(OC)c2)C(C)C)cc1OC (stereo not drawn) [verapamil SR, verapamil]
- Total Number of Events ([2]; All subjects (n = 935)): 137
- Total Number of Events ([2]; LTA4H AA (n = 469)): 68
- Total Number of Events [2, 7]: 60
- OR, ALOX5 promoter polymorphism variant carriers, adverse cardiovascular outcomes, By Drug Therapy [2]: 1.964
- systolic blood pressure response, average decrease [4]: 12 mmHg
- Incidence, All-cause Mortality ([3]; 0 copies ADRB2 46G-79G-523C): 7.3 per 1000 patient-years
- Incidence, Nonfatal MI ([3]; 0 copies ADRB2 46G-79G-523C): 5.9 per 1000 patient-years
- Incidence, Nonfatal Stroke ([3]; 0 copies ADRB2 46G-79G-523C): 5.1 per 1000 patient-years
- Incidence, Primary Outcome ([3]; 0 copies ADRB2 46G-79G-523C): 18.3 per 1000 patient-years
- Incidence, All-cause Mortality ([3]; 1 copy ADRB2 46G-79G-523C): 7.0 per 1000 patient-years
- Incidence, Nonfatal MI ([3]; 1 copy ADRB2 46G-79G-523C): 2.9 per 1000 patient-years
- Incidence, Nonfatal Stroke ([3]; 1 copy ADRB2 46G-79G-523C): 4.7 per 1000 patient-years
- Incidence, Primary Outcome ([3]; 1 copy ADRB2 46G-79G-523C): 14.5 per 1000 patient-years
- Incidence, All-cause Mortality ([3]; 2 copies ADRB2 46G-79G-523C): 4.2 per 1000 patient-years
- Incidence, Nonfatal MI ([3]; 2 copies ADRB2 46G-79G-523C): 6.3 per 1000 patient-years
- Incidence, Nonfatal Stroke ([3]; 2 copies ADRB2 46G-79G-523C): 6.3 per 1000 patient-years
- Incidence, Primary Outcome ([3]; 2 copies ADRB2 46G-79G-523C): 17.0 per 1000 patient-years
- Modification of the adverse effect of ADRB2 46G-79C-523C haplotype on primary outcome ([3]; Example 4): Neither atenolol nor verapamil SR modified the adverse effect of this haplotype
- Systolic and diastolic blood pressure control ([3]; patients treated with verapamil vs atenolol, FIG. 23): did not differ
- Events/1000 Patient-Years [3, 8]: 18.0 Events/1000 Patient-Years
- Events/1000 Patient-Years ([3]; primary outcome, 1 GGC copy): 14.4 Events/1000 Patient-Years
- Events/1000 Patient-Years ([3]; primary outcome, 2 GGC copies): 17.1 Events/1000 Patient-Years
- Events/1000 Patient-Years ([3]; primary outcome, All Patients): 16.4 Events/1000 Patient-Years
- HR, KCNMB1 codon 110 (Leu110) variant allele on primary outcome, separately by treatment strategy [3]: 0.55
- HRadj, ADRB1 49S-389R haplotype on mortality, by treatment ([3]; within patients treated with the named drug): 8.00

Compound: verapamil [verapamil SR]
- SNP effect in arm (OR, 95% CI), Death ([2]; CACNA1C rs1051375): 1.28 (0.82, 2.0)
- SNP effect in arm (OR, 95% CI), MI ([2]; CACNA1C rs1051375): 0.97 (0.61-1.53)
- SNP effect in arm (OR, 95% CI), Stroke ([2]; CACNA1C rs1051375): 1.83 (1.13-2.97)
- SNP effect in arm (OR, 95% CI), Death ([2]; CACNA1C rs10848683): 0.659 (0.365, 1.192)
- SNP effect in arm (OR, 95% CI), MI ([2]; CACNA1C rs10848683): 0.733 (0.415, 1.294)
- SNP effect in arm (OR, 95% CI), Stroke ([2]; CACNA1C rs10848683): 1.340 (0.767, 2.341)
- OR, effect of CACNB2 rs2357928 genotype on the primary outcome, by treatment [2]: 1.00

From US20100021903A1, “Use of Genetic Determinants in Cardiovascular Risk Assessment” (priority 2006, published 2010)
